Experimental data as given in paper PMC10343660, “Mechanochemical Studies on Coupling of Hydrazines and Hydrazine Amides with Phenolic and Furanyl Aldehydes—Hydrazones with Antileishmanial and Antibacterial Activities” (Molecules, 2023).
Converted amounts (≈) assume the structure as drawn. Where two headings read alike, the source gives them in different places. Marks after values point to notes of the source that are not given here.

Tests used:
[1] = system: Mycobacterium tuberculosis H37Rv; test: MIC determination for Mycobacterium tuberculosis H37Rv (REMA); assay type: cell-based; conditions: for MIC: read-out: M. tuberculosis H37Rv MIC; for MIC90: read-out: minimum inhibitory concentration (MIC90) on M. tuberculosis H37Rv
[2] = system: L. donovani axenic amastigotes (LV9); test: In vitro antileishmanial evaluation on L. donovani axenic amastigotes (SYBR Green); assay type: cell-based, Leishmania donovani; conditions: read-out: L. donovani Axenic Amastigote IC50 ± SD
Procedure: L. donovani (MHOM/ET/67/HU3, also called LV9) promastigotes and axenic amastigotes were maintained according to the protocols previously described.
In vitro antileishmanial evaluation on L. donovani axenic amastigotes. This evaluation was performed using the SYBR Green method as previously described. IC50 values were calculated using the ICEstimator version 1.2 software (http://www.antimalarial-icestimator.net/runregression1.2.htm, accessed on 5 April 2023). Miltefosine was used as the reference drug.

S. aureus ATCC25923 = test: MIC determination on S. aureus ATCC25923 (microdilution, resazurin); assay type: cell-based, Staphylococcus aureus
E. coli ATCC25922 = test: MIC determination on E. coli ATCC25922 (microdilution, resazurin); assay type: cell-based, Escherichia coli
[3] = system: L. donovani intramacrophage amastigotes; test: In vitro antileishmanial evaluation on intramacrophage amastigotes (RAW 264.7 infected, SYBR Green); assay type: cell-based, Leishmania donovani; conditions: for SI (Selectivity Index): CC50 (macrophage RAW 264.7)/IC50 (intramacrophage form of L. donovani); for IC50: read-out: L. donovani Intramacrophage Amastigote IC50 ± SD
Procedure: In vitro antileishmanial evaluation on intramacrophage amastigotes. RAW 264.7 macrophages were infected with L. donovani axenic amastigotes according to a ratio of 10 parasites per macrophage. […] The in vitro treatment was applied 24 h post-infection, and the treatment duration was 48 h. […] The activity of the compounds is expressed as IC50, calculated using the ICEstimator version 1.2 software. Miltefosine was used as the reference drug.

S. aureus ATCC29213 = test: MIC determination on S. aureus ATCC29213; assay type: cell-based, Staphylococcus aureus; conditions: value in parentheses
[4] = Mycobacterium tuberculosis, H37RV, 168 h, REMA, 7 days
[5] = Mycobacterium tuberculosis, H37RV, range for the active compounds
[6] = Leishmania donovani, LV9 axenic amastigote forms
[7] = Staphylococcus aureus, ATCC25923, value outside parentheses, read-out: S. aureus ATCC25923 MIC
[8] = Escherichia coli, ATCC25922, value outside parentheses, read-out: E. coli ATCC25922 MIC
[9] = Leishmania donovani, RAW264.7, RAW 264.7 macrophages infected, treatment 48 h
[10] = value outside parentheses, read-out: S. aureus ATCC25923 MIC
[11] = Staphylococcus aureus, ATCC29213
[12] = Staphylococcus aureus, ATCC25923, 24 h, value outside parentheses, read-out: S. aureus ATCC25923 MIC
[13] = Escherichia coli, ATCC25922, 24 h, value outside parentheses, read-out: E. coli ATCC25922 MIC

Compound	melting point [°C]	MIC [1, 4] [µM]	IC50 [2, 6] [µM]	MIC (S. aureus ATCC25923; [7]) [µM]	MIC (E. coli ATCC25922; [8]) [µM]	SI (Selectivity Index) [3]	IC50 [3, 9] [µM]	further results
O=[N+]([O-])c1ccc(/C=C/C=N/Nc2nc3ccccc3s2)o1 [Compound 5, 2-{(2E)-2-[(2E)-3-(5-Nitro-2-furyl)-2-propen-1-ylidene]hydrazino}-1,3-benzothiazole]	243.1	1 (≈ 0.314 µg/mL)	2.3 ± 0.3	> 814	> 814	>8	12.4 ± 1.2	MIC90 [1, 5]: 0.6 to 7.4 µM (≈ 0.189 to 2.33 µg/mL)
O=C(N/N=C/c1ccc(-c2ccc([N+](=O)[O-])cc2)o1)c1ccncc1 [Compound 8, N′-{(E)-[5-(4-Nitrophenyl)-2-furyl]methylene}isonicotinohydrazide]	–	–	–	–	–	>2	–	MIC ([1]; Mycobacterium tuberculosis, H37RV, 168 h): 0.9 µM (≈ 0.303 µg/mL); MIC90 ([1]; Mycobacterium tuberculosis, H37RV): 0.6 to 7.4 µM (≈ 0.202 to 2.49 µg/mL); IC50 ([2]; Leishmania donovani): 16.2 ± 1.2 µM; MIC (S. aureus ATCC25923; Staphylococcus aureus, ATCC25923, read-out: S. aureus ATCC25923 MIC): > 761 µM; MIC (E. coli ATCC25922; Escherichia coli, ATCC25922, read-out: E. coli ATCC25922 MIC): > 761 µM; IC50 ([3]; Leishmania donovani, RAW264.7, 48 h): 36.2 ± 1.4 µM
COc1cc(/C=N/NC(=O)c2ccc(O)cc2)ccc1O [Compound 2, 4-hydroxy-N′-[(E)-(4-hydroxy-3-methoxyphenyl)methylidene]benzohydrazide]	–	> 100	2.1 ± 0.1	> 894	> 894	>17	5.9 ± 0.9	–
O=C(N/N=C/c1ccc(-c2ccc([N+](=O)[O-])cc2)o1)OCc1ccccc1 [Compound 17, N′-[(E)-[5-(4-nitrophenyl)furan-2-yl]methylidene](benzyloxy)carbohydrazide]	–	–	–	–	–	–	–	MIC ([1]; REMA, 7 days): >100 µM; IC50 ([2]; LV9 axenic amastigote forms): 12.2 ± 1.6 µM; MIC (S. aureus ATCC25923; [10]): >701 µM; MIC (E. coli ATCC25922; value outside parentheses, read-out: E. coli ATCC25922 MIC): >701 µM; IC50 ([3]; RAW 264.7 macrophages infected, treatment 48 h): 32.4 ± 2.8 µM
CCCCCCCCCCCCCCCCOP(=O)([O-])OCC[N+](C)(C)C [Miltefosine, reference compound]	–	–	1.5 ± 0.3	–	–	9 ^a	2.2 ± 0.3	–
COc1cc(/C=N/NC(=O)c2ccncc2)ccc1O [Compound 1, N′-[(E)-(4-Hydroxy-3-methoxyphenyl)methylene]isonicotinohydrazide]	–	0.6 (≈ 0.163 µg/mL)	24.9 ± 2.9	> 944	> 944	>2.5	40.2 ± 3.1	MIC90 [1, 5]: 0.6 to 7.4 µM (≈ 0.163 to 2.01 µg/mL)
O=[N+]([O-])c1ccc(/C=C/C=N/NN2Cc3ccccc3C=N2)o1 [Compound 4, 2-{(2E)-2-[(2E)-3-(5-Nitro-2-furyl)-2-propen-1-ylidene]hydrazino}phthalazine]	–	129 (≈ 40.2 µg/mL)	1.9 ± 0.3	> 828	> 828	>166	0.6 ± 0.1	–
[H]/N=C(/N)N[C@H]1[C@H](O)[C@@H](O)[C@H](O[C@@H]2O[C@@H](C)[C@](O)(C=O)[C@H]2O[C@@H]2O[C@@H](CO)[C@H](O)[C@@H](O)[C@@H]2NC)[C@@H](N/C(N)=N\[H])[C@@H]1O [Streptomycin, reference compound]	–	0.4 (≈ 0.233 µg/mL)	–	–	–	–	–	–
O=C1CSC(=S)N1/N=C/c1ccc(-c2ccc([N+](=O)[O-])cc2)o1 [Compound 11, 3-[(E)-{[5-(4-Nitrophenyl)-2-furyl]methylene}amino]-2-thioxo-1,3-thiazolidin-4-one]	175	> 100	5.2 ± 0.3	> 737	> 737	–	> 100	–
O=[N+]([O-])c1ccc(-c2ccc(/C=N/Nc3nc4ccccc4s3)o2)cc1 [Compound 10, 2-[(2E)-2-{[5-(4-Nitrophenyl)-2-furyl]methylene}hydrazino]-1,3-benzothiazole]	271.9	> 100	0.7 ± 0.1	> 703	> 703	–	5.8 ± 1	–
O=C(O)c1cn(C2CC2)c2cc(N3CCNCC3)c(F)cc2c1=O [Ciprofloxacin, reference compound]	–	–	–	3 (≈ 0.994 µg/mL)	0.75 (≈ 0.249 µg/mL)	–	–	MIC (S. aureus ATCC29213; [11]): 5 µM (≈ 1.66 µg/mL)
O=C1CSC(=S)N1/N=C/C=C/c1ccc([N+](=O)[O-])o1 [Compound 6, 3-{(E)-[(2E)-3-(5-Nitro-2-furyl)-2-propen-1-ylidene]amino}-2-thioxo-1,3-thiazolidin-4-one]	–	4.2 (≈ 1.25 µg/mL)	0.7 ± 0.1	13 (≈ 3.87 µg/mL)	> 861	>125	0.8 ± 0.1	MIC (S. aureus ATCC29213; [11]): 7 µM (≈ 2.08 µg/mL); MIC (S. aureus ATCC29213): 7 µM (≈ 2.08 µg/mL); MIC90 [1, 5]: 0.6 to 7.4 µM (≈ 0.178 to 2.2 µg/mL); MIC (S. aureus ATCC25923; [10]): 13 µM (≈ 3.87 µg/mL)
O=[N+]([O-])c1ccc(-c2ccc(/C=N/Nc3nncc4ccccc34)o2)cc1 [Compound 9, 1-[(2E)-2-{[5-(4-Nitrophenyl)-2-furyl]methylene}hydrazino]phthalazine]	239.5 to 241.5	> 100	0.2 ± 0.1	> 711	> 711	>333	0.3 ± 0.1	–
NNC(=O)c1ccncc1 [Isoniazid, reference compound]	–	0.4 (≈ 0.0549 µg/mL)	–	–	–	–	–	–
O=[N+]([O-])c1ccc(-c2ccc(/C=N/Nc3cnccn3)o2)cc1 [Compound 15, 2-[(2E)-2-{[5-(4-nitrophenyl)furan-2-yl]methylidene}hydrazin-1-yl]pyrazine]	272.2 to 274	> 100	9.9 ± 0.8	–	–	>4	23.3 ± 3.1	MIC (S. aureus ATCC25923; [12]): > 678 µM; MIC (E. coli ATCC25922; [13]): > 678 µM
O=[N+]([O-])c1ccc(-c2ccc(/C=N/Nc3nc4ccc(Cl)cc4o3)o2)cc1 [Compound 16, 6-chloro-2-[(2E)-2-{[5-(4-nitrophenyl)furan-2-yl]methylidene}hydrazin-1-yl]-1,3-benzoxazole]	190.9	> 100	> 100	–	–	–	> 100	MIC (S. aureus ATCC25923; [12]): > 828 µM; MIC (E. coli ATCC25922; [13]): > 828 µM
O=[N+]([O-])c1ccc(-c2ccc(/C=N/Nc3ccc(Br)cn3)o2)cc1 [Compound 13, 5-Bromo-2-[(2E)-2-{[5-(4-nitrophenyl)furan-2-yl]methylidene}hydrazin-1-yl]pyridine]	–	> 100	54.3 ± 4.5	> 661	> 661	–	> 100	–
O=[N+]([O-])c1ccc(-c2ccc(/C=N/Nc3nccc(C(F)(F)F)n3)o2)cc1 [Compound 14, 2-[(2E)-2-{[5-(4-Nitrophenyl)furan-2-yl]methylidene}hydrazin-1-yl]-4-(trifluoromethyl) pyrimidine]	212.4 to 214.2	> 100	2.9 ± 0.2	–	–	>8	11.9 ± 1.1	MIC (S. aureus ATCC25923; [12]): > 669 µM; MIC (E. coli ATCC25922; [13]): > 669 µM
